≈ marks a conversion by molar mass, not a printed value. Calls of active or inactive are those of the source. The calls are words filed in the database; no cut-off is given here.
How the values were obtained:
[1] = test system: Mycobacterium tuberculosis; assay: microbe, parasite or virus in culture; settings: H37Ra
Description: Antimycobacterial activity against autoluminescent Mycobacterium tuberculosis H37Ra assessed as inhibition of bacterial growth measured after 3 to 7 days by luminescence based analysis

[2] = test system: Mycolicibacterium smegmatis; assay: Antimycobacterial activity against Mycobacterium smegmatis […] assessed as inhibition of bacterial growth at 10 uM incubated for 48 hrs by spectrophotometer relative to control; type: functional
[3] = test system: Mycolicibacterium smegmatis; assay: Antimycobacterial activity against Mycobacterium smegmatis […] assessed as inhibition of bacterial growth incubated for 48 hrs by spectrophotometer; type: functional
in vitro = settings: human, HepG2 cells
Description: Cytotoxicity against human HepG2 cells assessed as reduction in cell viability

[4] = Antimicrobial activity against Lactobacillus reuteri assessed as inhibition of microbial growth upto 2 uM; type: toxicity; settings: limosilactobacillus reuteri
[5] = Antimicrobial activity against Bifidobacterium pseudocatenulatum assessed as inhibition of microbial growth upto 2 uM; type: toxicity
[6] = Antimicrobial activity against Akkermansia muciniphila assessed as inhibition of microbial growth upto 2 uM; type: toxicity
[7] = Antimicrobial activity against Clostridium tyrobutyricum assessed as inhibition of microbial growth upto 2 uM; type: toxicity
[8] = Cytotoxicity against human Chang liver cells assessed as inhibition of cell growth; type: toxicity, cell-based
[9] = test system: Mycolicibacterium smegmatis; assay: Synergistic antimycobacterial activity against Mycobacterium smegmatis assessed as inhibition of bacterial growth at 0.5 times MIC50 incubated for 7 days in presence of 0.5 times MIC50 of rifampicin by checkerboard assay; type: functional, organism-based; settings: time 7.0 day
[10] = test system: Mycolicibacterium smegmatis; assay: Synergistic antimycobacterial activity against Mycobacterium smegmatis assessed as inhibition of bacterial growth at 0.5 times MIC50 incubated for 7 days in presence of 0.5 times MIC50 of ethambutol by checkerboard assay; type: functional, organism-based; settings: time 7.0 day
[11] = molecular target: T1, Decaprenylphosphoryl-beta-D-ribose oxidase (Mycobacterium tuberculosis (strain ATCC 25618 / H37Rv), UniProt P9WJF1)
T1 sequence (P9WJF1 whole entry): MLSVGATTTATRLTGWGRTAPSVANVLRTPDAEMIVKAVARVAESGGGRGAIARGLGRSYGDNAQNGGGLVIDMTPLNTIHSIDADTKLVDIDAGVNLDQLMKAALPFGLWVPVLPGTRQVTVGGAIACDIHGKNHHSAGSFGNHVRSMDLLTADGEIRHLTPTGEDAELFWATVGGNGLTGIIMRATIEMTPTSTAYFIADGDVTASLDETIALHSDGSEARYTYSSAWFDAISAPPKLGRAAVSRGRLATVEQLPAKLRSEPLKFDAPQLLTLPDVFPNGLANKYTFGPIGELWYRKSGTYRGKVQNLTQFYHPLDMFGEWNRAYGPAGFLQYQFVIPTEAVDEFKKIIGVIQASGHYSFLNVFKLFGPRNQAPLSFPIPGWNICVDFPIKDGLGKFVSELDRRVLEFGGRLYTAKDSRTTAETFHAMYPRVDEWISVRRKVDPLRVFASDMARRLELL
Description: Binding affinity to Mycobacterium tuberculosis DprE1 assessed as dissociation constant by biolayer interferometry

[12] = test system: Mycobacterium tuberculosis; type: functional; settings: H37Ra
[13] = test system: Mycobacterium tuberculosis; assay: Antimycobacterial activity against Mycobacterium tuberculosis assessed as inhibition of bacterial growth incubated for 24 hrs by alamar blue assay; type: functional
[14] = molecular target: T2, Decaprenylphosphoryl-beta-D-ribose oxidase (Mycobacterium tuberculosis (strain ATCC 25618 / H37Rv)) (UniProt P9WJF1); assay: Binding affinity to Mycobacterium tuberculosis DprE1 upto 166.7 microM by biolayer interferometry
T2 sequence (whole entry): T1 sequence (P9WJF1 whole entry)

| Structure (SMILES) | MIC90 [1] [µM] | MIC [3] [µM] | IC50 (in vitro) [µM] | also measured |
| --- | --- | --- | --- | --- |
| Cc1cccc(C(=O)Nc2cc(C)nn2-c2nc3ccc(Cl)cc3c(=O)[nH]2)c1 | 1.59 (≈ 0.626 µg/mL) |  |  |  |
| Cc1cccc(C(=O)Nc2cc(C)nn2-c2nc3ccc(F)cc3c(=O)[nH]2)c1 | 0.83 (≈ 0.313 µg/mL) |  |  |  |
| CCc1c(C)nc(-n2nc(C)cc2NC(=O)C2CC(=O)N(c3ccc(C)cc3)C2)[nH]c1=O (centres undefined) |  | 29.8 (≈ 12.9 µg/mL) | > 100 | inhibition at 10 µM [2]: 38% |
| Cc1cccc(C(=O)Nc2cc(C)nn2-c2nc3cc(F)ccc3c(=O)[nH]2)c1 | 1.66 (≈ 0.626 µg/mL) |  |  |  |
| Cc1cccc(C(=O)Nc2cc(C)nn2-c2nc3ccccc3c(=O)[nH]2)c1 | 1.56 (≈ 0.561 µg/mL) |  | > 100 | Activity [4]: Non-Toxic; Activity [5]: Non-Toxic; Activity [6]: Non-Toxic; Activity [7]: Non-Toxic; Activity [8]: Non-Toxic; Activity [9]: Active; Activity [10]: Active |
| CCc1cc(=O)[nH]c(-n2nc(C)cc2Nc2cccc(C(F)(F)F)c2)n1 | 0.78 (≈ 0.283 µg/mL) |  | > 100 | Activity [4]: Non-Toxic; Activity [5]: Non-Toxic; Activity [6]: Non-Toxic; Activity [7]: Non-Toxic; Activity [8]: Non-Toxic; Activity [9]: Active; Activity [10]: Active; Kd [11]: 25 µM |
| CCc1cc(=O)[nH]c(-n2nc(C)cc2Nc2cccc([N+](=O)[O-])c2)n1 | 1.56 (≈ 0.531 µg/mL) |  |  |  |
| O=C(Cc1ccccc1)NNC(=O)c1cc([N+](=O)[O-])cc([N+](=O)[O-])c1 |  |  |  | MIC [12]: 1.25 µM (≈ 0.43 µg/mL) |
| CCC(CC)C(=O)Nc1nnc(C2CC(=O)N(c3ccc(C)c(Cl)c3)C2)s1 (centres undefined) |  | > 50 | 43 |  |
| CCOc1ccc(CC(=O)Nc2cc(C)nn2-c2nc3c(c(=O)[nH]2)CCC3)cc1 | 18.5 (≈ 7.26 µg/mL) | 18.5 (≈ 7.26 µg/mL) | 116 |  |
| CCc1ccc(N2CC(C(=O)Nc3ccccc3C(=O)Nc3nnc(CC)s3)CC2=O)cc1 (centres undefined) |  | > 50 | 165 |  |
| CCc1cc(=O)[nH]c(-n2nc(C)cc2NC(=O)c2cccc(C)c2)n1 | 1.56 (≈ 0.526 µg/mL) |  |  |  |
| Cc1cc(NC(=O)c2cccnc2)n(-c2nc3ccccc3c(=O)[nH]2)n1 | 1.81 (≈ 0.627 µg/mL) |  |  |  |
| Cc1cccc(C(=O)Nc2cc(C)nn2-c2nc3ccc(C)cc3c(=O)[nH]2)c1 | 0.84 (≈ 0.314 µg/mL) |  |  |  |
| Cc1cc(NC(=O)c2ccc3ccccc3c2)n(-c2nc3c(c(=O)[nH]2)CCC3)n1 |  | > 50 | 144 |  |
| CCc1cc(=O)[nH]c(-n2nc(C)cc2N)n1 | 6.25 (≈ 1.37 µg/mL) |  |  |  |
| Cc1cccc(C(=O)Nc2cc(C)nn2-c2nc3cc(Cl)ccc3c(=O)[nH]2)c1 | 3.18 (≈ 1.25 µg/mL) |  |  |  |
| CCc1c(C)nc(-n2nc(C)cc2NC(=O)COc2cccc(C)c2)[nH]c1=O | 5.98 (≈ 2.28 µg/mL) | 7.71 (≈ 2.94 µg/mL) | 41.2 |  |
| Cc1cc(NC(=O)c2ccc(C)c(C)c2)n(-c2nc(C)c(C)c(=O)[nH]2)n1 | 3.56 (≈ 1.25 µg/mL) | 1.06 (≈ 0.372 µg/mL) | 38.7 |  |

| Structure (SMILES) | MIC90 [1] [µM] | MIC [3] [µM] | IC50 (in vitro) [µM] | also measured |
| --- | --- | --- | --- | --- |
| C=CCN1C(=O)NC(=O)/C(=C\NNC(=O)c2ccncc2)C1=O |  |  |  | MIC [13]: 9.75 µM (≈ 3.07 µg/mL) |
| Cc1cccc(C(=O)Nc2cc(C)nn2-c2nc(C3CC3)cc(=O)[nH]2)c1 | 3.12 (≈ 1.09 µg/mL) |  |  |  |
| CCc1cc(=O)[nH]c(-n2nc(C)cc2Nc2cccc(C)c2)n1 | 0.78 (≈ 0.241 µg/mL) |  |  |  |
| CO[C@H]1/C=C/O[C@@]2(C)Oc3c(C)c(O)c4c(O)c(c(/C=N/N5CCN(C)CC5)c(O)c4c3C2=O)NC(=O)/C(C)=C\C=C\[C@H](C)[C@H](O)[C@@H](C)[C@@H](O)[C@@H](C)[C@H](OC(C)=O)[C@@H]1C [RIFAMPIN] |  |  |  | Activity [14]: inactive; Activity [4]: Non-Toxic; Activity [6]: Toxic; Activity [7]: Toxic; Kd [11]: 93600 µM |
| CCc1cc(=O)[nH]c(-n2nc(C)cc2NC(=O)C2CCCC2)n1 | 6.25 (≈ 1.97 µg/mL) |  |  |  |
| COc1ncnc(Cn2cc(C(=O)NCCO)c3ncc(C)cc32)c1C [TBA-7371] | 12.5 (≈ 4.44 µg/mL) | 2.54 (≈ 0.903 µg/mL) | 165 |  |
| NNC(=O)c1ccncc1 [ISONIAZID] | 0.78 (≈ 0.107 µg/mL) |  | > 100 | Activity [4]: Non-Toxic; Activity [5]: Toxic; Activity [7]: Toxic |
| COc1ccc2nc(-n3nc(C)cc3NC(=O)c3cccc(C)c3)[nH]c(=O)c2c1 | 0.8 (≈ 0.312 µg/mL) |  |  |  |
| Cc1nc2ccc(NC(=O)c3cc([N+](=O)[O-])cc([N+](=O)[O-])c3Cl)cc2s1 |  | > 50 | 86.1 |  |
| CCc1cc(=O)[nH]c(-n2nc(C)cc2NC(=O)c2cccc([N+](=O)[O-])c2)n1 | 3.12 (≈ 1.15 µg/mL) | 0.86 (≈ 0.317 µg/mL) | 55.4 |  |
| CC(=O)N1N=C(c2c(O)n(-c3ccccc3C)c(=O)[nH]c2=O)CC1c1ccccc1 (centres undefined) |  | > 50 | 21 |  |
| CCOC(=O)C(=O)Nc1cc(C)nn1-c1nc(C)c(CC)c(=O)[nH]1 | 30.6 (≈ 10.2 µg/mL) | 30.6 (≈ 10.2 µg/mL) | 83.8 |  |
| Cc1cc(NC(=O)Cc2ccccc2)n(-c2nc3ccccc3c(=O)[nH]2)n1 | 7.22 (≈ 2.59 µg/mL) |  |  |  |
| COc1ccc2c(=O)[nH]c(-n3nc(C)cc3NC(=O)c3cccc(C)c3)nc2c1 | 6.43 (≈ 2.5 µg/mL) |  |  |  |
| Cc1cccc(Nc2cc(C)nn2-c2nc3ccccc3c(=O)[nH]2)c1 | 0.94 (≈ 0.311 µg/mL) |  |  |  |
| CCc1c(C)nc(-n2nc(C)cc2NC(=O)CCc2ccc(OC)cc2)[nH]c1=O | 6.32 (≈ 2.5 µg/mL) | 18 (≈ 7.11 µg/mL) | 129 |  |
| Cc1cc(NC(=O)c2cccc(C(F)(F)F)c2)n(-c2nc3ccccc3c(=O)[nH]2)n1 | 1.51 (≈ 0.624 µg/mL) |  |  |  |
| CCc1cc(=O)[nH]c(-n2nc(C)cc2NC(=O)c2cccc(F)c2)n1 | 6.25 (≈ 2.13 µg/mL) |  |  |  |
| CCc1cc(=O)[nH]c(-n2nc(C)cc2NC(C)=O)n1 | 50 (≈ 13.1 µg/mL) |  |  |  |

Source: ChEMBL document CHEMBL5537187, “Discovery of N-(1-(6-Oxo-1,6-dihydropyrimidine)-pyrazole) Acetamide Derivatives as Novel Noncovalent DprE1 Inhibitors against Mycobacterium tuberculosis” (J Med Chem, 2024)
